Experiment in all cases: Bliss excess, mean over the matrix (fraction); higher = more synergy
Assay [1] deals with COR-L23 (Non-Small Cell Lung Carcinoma). The gist of the method: (§1)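 Cell lines in DMEM/F12 or RPMI with 10% FBS were plated in 1536-well plates, held 24 hours at 37°C, 5% CO2, then given two-drug dose matrices for 72 hours (DMSO typically 0.2%). Viability was read by CellTiter-Glo 2.0 luminescence and scaled as inhibition from 0 (vehicle wells) to 1 (blank wells). Combination Emax is the second-highest inhibition in the matrix; Bliss excess is observed combination effect minus expected EA + EB − EA·EB, EA and EB being single-agent effects.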

In assay [2] the test system is IGR-1 (Melanoma). The method in brief: as §1
Assay [3] relates to NCI-H1694 (Small Cell Lung Carcinoma). The method in brief:
as §1

In assay [4] the test system is EM-2 (Chronic Myelogenous Leukemia). The method in brief: as §1
Assay [5] relates to NCI-H1781 (Lung Adenocarcinoma). The gist of the method:
as §1

In assay [6] the test system is HCC2157 (Breast Carcinoma). The gist of the method: as §1
Assay [7] deals with NALM-6 (B-Lymphoblastic Leukemia). The method in brief:
as §1

Assay [8] deals with LS-513 (Colorectal Carcinoma). The gist of the method: as §1
Assay [9] has as its system COR-L95 (Small Cell Lung Carcinoma). The gist of the method:
as §1

The test system of assay [10] is SW1990 (Pancreatic Carcinoma). The gist of the method:
as §1

Assay [11] has as its system HPAC (Pancreatic Carcinoma). The method in brief: as §1
The test system of assay [12] is NCI-H1793 (Lung Adenocarcinoma). The method in brief:
as §1

The test system of assay [13] is DOV13 (Ovarian Carcinoma). The method in brief:
as §1

Assay [14] has as its system HT-29 (Colorectal Carcinoma). The method in brief: as §1
Assay [15] has as its system SW1088 (Low Grade Glioma). The method in brief:
as §1

For assay [16], the system named is SW780 (Bladder Carcinoma). The gist of the method: as §1
Assay [17] deals with DB (B-Cell Non-Hodgkin's Lymphoma). The method in brief:
as §1

Assay [18] has as its system SW1783 (Low Grade Glioma). The gist of the method: as §1
For assay [19], the system named is LU-99A (Non-Small Cell Lung Carcinoma). The gist of the method:
as §1

In assay [20] the test system is MDA-MB-231 (Breast Carcinoma). The gist of the method:
as §1

Take `CC1(C)CCC(CN2CCN(c3ccc(C(=O)NS(=O)(=O)c4ccc(NCC5CCOCC5)c([N+](=O)[O-])c4)c(Oc4cnc5[nH]ccc5c4)c3)CC2)=C(c2ccc(Cl)cc2)C1` [Venetoclax] + Cc1cc2ncnn2cc1Nc1ncc2c(n1)n(C1CCOCC1)c(=O)n2C [AZD7648] (first compound max 1 µM, 7x7, partner max 10 µM): the Bliss excess in [1] was -0.0351; in assay [2], -0.0287; in assay [3], -0.0247; in assay [4], -0.0135; in assay [5] it was -0.0274; in [6], 0.0602. For the same compound, the Bliss excess in assay [7] is -0.0184; in assay [8], -0.0294; in assay [9], -0.039; in assay [10], -0.0426; in assay [11], 0.0142; in [12], -0.042. Moreover, the Bliss excess in assay [13] is 0.0659; in [14], 0.0077; in assay [15] it was -0.105; in [16] it was -0.0035; in assay [17], 0.0225; in assay [18] it was -0.0395. Moreover, the Bliss excess in assay [19] is -0.0437; in assay [20], 0.0192.
Regarding `CC1(C)CCC(CN2CCN(c3ccc(C(=O)NS(=O)(=O)c4ccc(NCC5CCOCC5)c([N+](=O)[O-])c4)c(Oc4cnc5[nH]ccc5c4)c3)CC2)=C(c2ccc(Cl)cc2)C1` [Venetoclax] + Cn1cnc2c(F)c(Nc3ccc(Br)cc3Cl)c(C(=O)NOCCO)cc21 [Selumetinib] (first compound max 1 µM, 7x7, partner max 3 µM), the Bliss excess in assay [1] was -0.0182; in assay [2] it was -0.0405; in assay [3], -0.0313; in assay [4], -0.055; in [5], -0.0437; in [6] it was -0.006. Also, the Bliss excess was 0.168 in assay [7]; -0.0159 in assay [8]; -0.0265 in assay [9]; -0.0656 in assay [10]; -0.0515 in [11]; -0.0096 in assay [12]. Also, the Bliss excess in [13] was -0.0151; in assay [14], -0.0261; in assay [15] it was -0.0407; in assay [16], -0.0367; in assay [17], -0.0192; in assay [18] it was -0.0595. The Bliss excess in assay [19] is -0.0484; in [20], -0.0277.
For `CN(C)CCCOc1ccc(-c2ccc3ncc4c(c3c2)n(C2CCOCC2)c(=O)n4C)cn1` [AZD0156] + CCN(CCO)CCCOc1ccc2c(Nc3cc(CC(=O)Nc4cccc(F)c4)[nH]n3)ncnc2c1 [AZD2811] (first compound max 1 µM, 7x7, partner max 1 µM), the Bliss excess in [1] was -0.0073; in assay [2] it was -0.0235; in assay [3], 0.0516; in assay [4], -0.0445; in assay [5], 0.0374; in assay [6] it was 0.112. Further, the Bliss excess in assay [7] is -0.0755; in assay [8] it was -0.0559; in assay [9], -0.0116; in assay [10], -0.0536; in assay [11], 0.012; in [12], -0.0309. The Bliss excess was 0.0385 in assay [13]; -0.0109 in assay [14]; -0.0291 in assay [15]; -0.0268 in assay [16]; -0.0221 in assay [17]; -0.0452 in [18]. Also, the Bliss excess in assay [19] was -0.0341; in [20], -0.0296.
On to `COc1cc2c(cc1OCCCCCOc1cc3c(cc1OC)C(=O)N1C=C(C)C[C@H]1C=N3)N=C[C@@H]1CC(C)=CN1C2=O` [SG3199] + O=C(c1cc(Cc2n[nH]c(=O)c3ccccc23)ccc1F)N1CCN(C(=O)C2CC2)CC1 [Olaparib] (first compound max 0.001 µM, 7x7, partner max 10 µM), for which the Bliss excess in assay [1] is 0.0285; in [2], -0.0189; in assay [3] it was -0.0222; in assay [4], 0.0107; in [5], -0.0305; in [6], 0.0277. The Bliss excess is -0.0302 in assay [7]; -0.0372 in [8]; -0.0224 in [9]; -0.049 in [10]; -0.0232 in [11]; -0.0323 in assay [12]. For the same compound, the Bliss excess is -0.0443 in [13]; -0.0261 in assay [14]; -0.0511 in assay [15]; -0.0497 in assay [16]; -0.0272 in assay [17]; -0.0446 in [18]. Also, the Bliss excess is -0.0672 in [19] and -0.0808 in [20].
On to `COc1cccc(OCCCN)c1-c1cc(Nc2cnc(C#N)cn2)n[nH]1` [Prexasertib] + C[C@@H]1COCCN1C2=NC(=NC(=C2)C3(CC3)[S@](=N)(=O)C)C4=C5C=CNC5=NC=C4 [AZD6738] (first compound max 1 µM, 7x7, partner max 10 µM), for which the Bliss excess in [1] is -0.0311; in [2], -0.0091; in assay [3], -0.06; in assay [4], -0.0344; in assay [5], 0.006; in assay [6] it was -0.0145. Moreover, the Bliss excess in assay [7] is -0.0522; in assay [8] it was -0.0183; in [9], 0.0074; in assay [10], -0.0446; in assay [11] it was -0.0351; in assay [12], -0.0106. Moreover, the Bliss excess is 0.0179 in assay [13]; -0.0361 in assay [14]; -0.0192 in assay [15]; 0.0009 in [16]; -0.0569 in assay [17]; 0.0261 in assay [18]. Besides, the values for the Bliss excess in assay [19] and in [20] were -0.0398 and 0.0988, respectively.
As to `NC1(C(=O)N[C@@H](CCO)c2ccc(Cl)cc2)CCN(c2ncnc3[nH]ccc23)CC1` [Capivasertib] + CC(C)n1c(=O)n(C)c2cnc3cc(F)c(-c4ccc(OCCCN5CCCCC5)nc4)cc3c21 [AZD1390] (first compound max 10 µM, 7x7, partner max 0.3 µM), the Bliss excess in [1] was -0.0579; in assay [2], -0.0607; in assay [3], -0.0081; in assay [4], -0.0446; in assay [5], -0.0696; in [6], 0.002. The Bliss excess in assay [7] is -0.0863; in [8], -0.0511; in [9], -0.0425; in [10], -0.05; in assay [11], -0.0699; in assay [12] it was -0.0745. Besides, the Bliss excess in assay [13] was -0.0407; in assay [14], -0.0376; in [15], -0.0822; in assay [16], -0.0715; in assay [17], -0.0494; in assay [18], -0.0625. For the same compound, the results for the Bliss excess in assay [19] and in assay [20] were -0.0962 and -0.102, respectively.
As to `Cc1cc2ncnn2cc1Nc1ncc2c(n1)n(C1CCOCC1)c(=O)n2C` [AZD7648] + CCN(CCO)CCCOc1ccc2c(Nc3cc(CC(=O)Nc4cccc(F)c4)[nH]n3)ncnc2c1 [AZD2811] (first compound max 10 µM, 7x7, partner max 1 µM), the Bliss excess in [1] was -0.023; in assay [2] it was -0.0224; in assay [3], 0.0483; in assay [4] it was -0.073; in assay [5], 0.0239; in [6], 0.0278. Also, the Bliss excess in assay [7] was -0.0358; in assay [8], -0.0033; in assay [9], -0.003; in [10] it was -0.0199; in [11], -0.032; in [12], -0.005. Also, the Bliss excess in assay [13] was -0.0551; in assay [14] it was 0.0227; in [15], -0.0312; in assay [16] it was -0.018; in assay [17] it was 0.0438; in [18], 0.0063. For the same compound, the Bliss excess in [19] amounted to 0.0216; in assay [20], 0.0014.
